Here are results for 52 compounds from PubChem BioAssay AID588372 (Southern Research Specialized Biocontainment Screening …, 2011).

SMILES strings stand for the structures. Values joined by “and” are separate entries in the source; they are usually repeats but may differ in a detail not shown here. Identical values can stand only once. Results filed as inconclusive are left out. Active and inactive are the calls of the source. The rule behind the calls is not given here.

The inhibition is the change of the read-out against control, counted positive when it falls. The term IC50 denotes the midpoint of a concentration-inhibition curve.

Test [1] can be described thus: inhibition of WNV in infected cells – cell-based, EC_2, dose response (AID 588372). The conditions noted are these: West Nile virus infected cells, antiviral inhibition.
Test [2] relates to West Nile virus infected cells, antiviral inhibition. Described as above.

As for `O=C(CSc1nc2ccccc2c(=O)n1-c1ccc(F)c(Cl)c1)Nc1ccc2c(c1)OCO2`, the inhibition in test [1] (at 100 µM (top of the series)) was -0.94% (inactive).
Consider `O=C(CSc1nc2ccccc2c(=O)n1-c1ccc(F)c(F)c1)Nc1ccc2c(c1)CCC2`, for which, in test [2], the IC50 was 5.72 µM.
`O=C(CSc1nc2ccccc2c(=O)n1-c1ccc(Cl)c(Cl)c1)Nc1cccc(-c2ccccc2)c1`: the inhibition in test [1] (at 100 µM (top of the series)) is -1.24% (inactive).
The same measure, in the same setting: the result for `O=C(CSc1nc2ccccc2c(=O)n1-c1ccc(F)c(F)c1)NC1Cc2ccccc2C1` reads -0.73% (inactive); that for `O=C(CCCCSc1nc2ccccc2c(=O)n1-c1cc(F)c(F)c(F)c1)Nc1ccc2c(c1)CCC2`, 11.5% (inactive).
On to `Cc1csc(NC(=O)CSc2nc3ccccc3c(=O)n2-c2ccc(Cl)c(Cl)c2)n1`, for which the inhibition in test [1] (at 100 µM (top of the series)) is -0.04% (inactive).
Take `O=C(CSc1nc2ccccc2c(=O)n1-c1ccc(F)c(Cl)c1)NC1CCc2ccccc21` (configuration not stated): in test [1] (at 100 µM (top of the series)), the inhibition was 1.01% (inactive).
In the case of `O=C(CSc1nc2ccccc2c(=O)n1-c1ccc(Cl)c(Cl)c1)Nc1ccc2scnc2c1`, the inhibition in test [1] (at 100 µM (top of the series)) was 0.04% (inactive).
With `O=C(CSc1nc2ccccc2c(=O)n1-c1ccc(Cl)c(Cl)c1)NC1CCc2ccccc21` (configuration not stated), the inhibition in test [1] (at 50 µM (top of the series)) is 5.24% (inactive).
In the case of `O=C(CSc1nc2ccccc2c(=O)n1-c1ccc(F)c(Cl)c1)Nc1cccc2c1CCC2`, the inhibition in test [1] (at 100 µM (top of the series)) is -0.11% (inactive).
As for `O=C(CSc1nc2ccccc2c(=O)n1-c1ccc(F)c(Cl)c1)Nc1ccc2c(c1)CCC2`, in test [2], the IC50 is 9.05 µM.
As to `O=C(CSc1nc2ccccc2c(=O)n1-c1cc(Cl)cc(Cl)c1)Nc1ccc2c(c1)OCO2`, the inhibition in test [1] (at 50 µM (top of the series)) is -2.43% (inactive).
Consider `O=C(CSc1nc2ccccc2c(=O)n1-c1ccc(F)c(F)c1)NC1CCCc2ccccc21` (configuration not stated), for which the inhibition in test [1] (at 100 µM (top of the series)) was -0.29% (inactive).
Regarding `Cn1c(NC(=O)CSc2nc3ccccc3c(=O)n2-c2ccccc2)nc2ccccc21`, the inhibition in test [1] (at 25 µM (top of the series)) is -2.29% (inactive).
`O=C(CSc1nc2ccccc2c(=O)n1-c1cc(F)c(F)c(F)c1)Nc1cccc2ccccc12`: in test [1] (at 100 µM (top of the series)), the inhibition was -1.52% (inactive).
Consider `O=C(CCCCSc1nc2ccccc2c(=O)n1-c1ccc(Cl)c(Cl)c1)Nc1ccc2c(c1)CCC2`, for which the inhibition in test [1] (at 100 µM (top of the series)) was 3.07% (inactive).
As to `O=C(CSc1nc2ccccc2c(=O)n1-c1ccc(Cl)c(Cl)c1)NC1CCCc2ccccc21` (configuration not stated), the inhibition in test [1] (at 50 µM (top of the series)) is 1.77% (inactive).
Consider `O=C(CCCCSc1nc2ccccc2c(=O)n1-c1ccc(F)c(Cl)c1)Nc1ccc2c(c1)CCC2`, for which the inhibition in test [1] (at 100 µM (top of the series)) was 0.07% (inactive).
Turning to `O=C(CSc1nc2ccccc2c(=O)n1-c1cc(Cl)cc(Cl)c1)Nc1cccc2c1CCC2`, the inhibition in test [1] (at 50 µM (top of the series)) was 1.26% (inactive).
For `O=C(CSc1nc2ccccc2c(=O)n1-c1cc(F)c(F)c(F)c1)NC1CCCc2ccccc21` (configuration not stated), the inhibition in test [1] (at 50 µM (top of the series)) was -0.6% (inactive).
With `O=C(CSc1nc2ccccc2c(=O)n1-c1cc(F)c(F)c(F)c1)Nc1nccs1`, the inhibition in test [1] (at 100 µM (top of the series)) is 6.14% (inactive).
On to `O=C(CSc1nc2ccccc2c(=O)n1-c1ccc(Cl)c(Cl)c1)Nc1ncc([N+](=O)[O-])s1`, for which the inhibition in test [1] (at 100 µM (top of the series)) was 0.32% (inactive).
Take `O=C(CSc1nc2ccccc2c(=O)n1-c1ccc(F)c(F)c1)Nc1cccc2c1CCC2`: the inhibition in test [1] (at 100 µM (top of the series)) was 0% (inactive).
Still for that read-out and setting: the result for `O=C(COc1nc2ccccc2c(=O)n1-c1ccccc1)Nc1ccc2c(c1)CCC2` reads 5.92% (inactive); that for `O=C(CCCCSc1nc2ccccc2c(=O)n1-c1cc(Cl)cc(Cl)c1)Nc1ccc2c(c1)CCC2`, 0.66% (inactive); that for `O=C(CCCSc1nc2ccccc2c(=O)n1-c1ccc(Cl)c(Cl)c1)Nc1ccc2c(c1)CCC2`, -0.7% (inactive).
With `Cn1c(NC(=O)CSc2nc3ccccc3c(=O)n2-c2ccc(Cl)c(Cl)c2)nc2ccccc21`, the inhibition in test [1] (at 50 µM (top of the series)) was -1.28% (inactive).
`O=C(CSc1nc2ccccc2c(=O)n1-c1cc(F)c(F)c(F)c1)Nc1ccc2c(c1)OCO2`: in test [1] (at 100 µM (top of the series)), the inhibition was 3.29% (inactive).
Consider `O=C(CSc1nc2ccccc2c(=O)n1-c1cc(Cl)cc(Cl)c1)Nc1ccc2c(c1)CCC2`, for which the IC50 in test [2] was 2.1 µM.
Take `O=C(CSc1nc2ccccc2c(=O)n1-c1cc(F)c(F)c(F)c1)Nc1cccc2c1CCC2`: in test [1] (at 50 µM (top of the series)), the inhibition is 5.49% (inactive).
As to `O=C(CCSc1nc2ccccc2c(=O)n1-c1ccc(F)c(Cl)c1)Nc1ccc2c(c1)CCC2`, the inhibition in test [1] (at 100 µM (top of the series)) is -1.01% (inactive).
For `O=C(CSc1nc2ccccc2c(=O)n1-c1cc(F)c(F)c(F)c1)NC1Cc2ccccc2C1`, the inhibition in test [1] (at 50 µM (top of the series)) was 0.07% (inactive).
The same measure, in the same setting: the same measure for `O=C(CSc1nc2ccccc2c(=O)n1-c1ccc(Cl)c(Cl)c1)NC1Cc2ccccc2C1`: -0.66% (inactive); for `Cc1nc2cc(NC(=O)CSc3nc4ccccc4c(=O)n3-c3ccc(Cl)c(Cl)c3)ccc2s1`: 0.29% (inactive); for `O=C(CSc1nc2ccccc2c(=O)n1-c1ccc(F)c(F)c1)Nc1nccs1`: 0% (inactive).
Turning to `O=C(CCSc1nc2ccccc2c(=O)n1-c1cc(Cl)cc(Cl)c1)Nc1ccc2c(c1)CCC2`, in test [1] (at 100 µM (top of the series)), the inhibition was 1.02% (inactive).
Turning to `O=C(CSc1nc2ccccc2c(=O)n1-c1ccc(F)c(Cl)c1)Nc1cccc2ccccc12`, the inhibition in test [1] (at 100 µM (top of the series)) is -0.86% (inactive).
The same measure, in the same setting: the same measure for `O=C(CSc1nc2ccccc2c(=O)n1-c1ccc(F)c(Cl)c1)NC1Cc2ccccc2C1`: -1.39% (inactive).
On the same count and under the same terms, the same measure for `O=C(CSc1nc2ccccc2c(=O)n1-c1ccc(Cl)c(Cl)c1)N1CCCCCC1`: 1.13% (inactive).
For the compound `O=C(CSc1nc2ccccc2c(=O)n1-c1cc(Cl)cc(Cl)c1)NC1CCCc2ccccc21` (configuration not stated), the inhibition in test [1] (at 50 µM (top of the series)) is 1.62% (inactive).
With `O=C(CSc1nc2ccccc2c(=O)n1-c1ccccc1)Nc1ccc2c(c1)CCC2`, in test [2], the IC50 is 6.51 µM and 33.3 µM.
As for `O=C(CSc1nc2ccccc2c(=O)n1-c1ccc(Cl)c(Cl)c1)Nc1nc(-c2ccccc2)cs1`, the inhibition in test [1] (at 100 µM (top of the series)) is 0.46% (inactive).
`O=C(CCCCSc1nc2ccccc2c(=O)n1-c1ccc(F)c(F)c1)Nc1ccc2c(c1)CCC2`: the inhibition in test [1] (at 100 µM (top of the series)) was 0.53% (inactive).
On the same count and under the same terms, the same measure for `Cc1cnc(NC(=O)CSc2nc3ccccc3c(=O)n2-c2ccc(Cl)c(Cl)c2)s1`: -0.85% (inactive).
`O=C(CCSc1nc2ccccc2c(=O)n1-c1ccc(F)c(F)c1)Nc1ccc2c(c1)CCC2`: the inhibition in test [1] (at 100 µM (top of the series)) is -1.31% (inactive).
Turning to `O=C(CSc1nc2ccccc2c(=O)n1-c1ccc(F)c(F)c1)Nc1ccc2c(c1)OCO2`, the inhibition in test [1] (at 100 µM (top of the series)) is -1.66% (inactive).
In the case of `O=C(CSc1nc2ccccc2c(=O)n1-c1ccc(F)c(Cl)c1)Nc1nccs1`, the inhibition in test [1] (at 100 µM (top of the series)) was 7.09% (inactive).
Turning to `O=C(CSc1nc2ccccc2c(=O)n1-c1cc(F)c(F)c(F)c1)Nc1ccc2c(c1)CCC2`, in test [2], the half-maximal inhibitory concentration (IC50) is 5.27 µM.
On to `O=C(CSc1nc2ccccc2c(=O)n1-c1ccc(Cl)c(Cl)c1)Nc1nc2cc(Cl)ccc2o1`, for which the inhibition in test [1] (at 100 µM (top of the series)) is 6.36% (inactive).
For the compound `O=C(CSc1nc2ccccc2c(=O)n1-c1ccc(Cl)c(Cl)c1)Nc1nc2ccc([N+](=O)[O-])cc2s1`, the inhibition in test [1] (at 50 µM (top of the series)) was -1.43% (inactive).
Take `O=C(CSc1nc2ccccc2c(=O)n1-c1ccc(F)c(Cl)c1)NC1CCCc2ccccc21` (configuration not stated): in test [1] (at 100 µM (top of the series)), the inhibition was -0.04% (inactive).
For `O=C(CSc1nc2ccccc2c(=O)n1-c1ccc(F)c(F)c1)Nc1cccc2ccccc12`, the inhibition in test [1] (at 100 µM (top of the series)) was -1.02% (inactive).
